Key:
[1] = Dispersion in water (photographs, FIG. 1); type: physicochemical
[2] = system: Caco-2 cells, HT-29 cells and Raji-B cells; test: Cell uptake of curcumin in three-cell model, flow cytometry; conditions: curcumin 20 μg/mL, 4 hours; verapamil 300 μg/mL, sodium azide 1 mg/mL, ketoconazole 10 μg/mL

dispersion in water (in words) [1]: insoluble in water | average value (intake of curcumin by cells, fluorescence) [2]: 19.4
Compound: COc1cc(/C=C/C(=O)CC(=O)/C=C/c2ccc(O)c(OC)c2)ccc1O [Curcumin raw material, Curcumin]

Reference: patent publication US12485096B2 (CHENLAND NUTRITIONALS, INC., priority 2020, dated 2025)
